US20040048262A1, “Methods for determining the bilogical effects of compounds on gene expression” (priority 2003, published 2004)

System: PC12 cells
Experiment: Transcription factor DNA-binding activity profile, nuclear extracts of NGF-treated PC12 cells, random 16-mer library (FIG. 2)
Assay type: cell-based
Conditions: 200 ng/ml NGF-beta, 5 hr, vs untreated
Source text: FIG. 2 is a bar graph showing the effects of nerve growth factor (NGF) treatment on transcription factor DNA-binding activities in PC12 cells. The identity of the specific transcription factors whose binding activity is being detected are listed on the X-axis. The level of DNA binding activity for each individual transcription factor is depicted as a percentage of the total number of DNA fragments sequenced from the “bound” fraction of the DNA library used in the binding reactions and containing the cognate site for that particular protein (shown as a numerical value on the Y-axis). The level of binding activities for all the proteins detected as a result of their cognate binding sites being found in the “bound” fraction of the DNA library constitutes the transcription factor activity profiles for PC12 cells and PC12 cells following NGF treatment. The profiles generated provide a useful indicator of the mechanism of action of the compound being used for the cell treatrment. For example, if the mechanism of action of NGF was to increase the expression of a particular cell surface receptor, then one would expect to see altered levels of binding activities for those transcription factors known to regulate the expression of the gene that encodes that particular receptor in the NGF-treated sample. If one did indeed see altered binding activity levels of factors known to regulate a particular receptor gene or set of genes, then one could immediately assay for those changes in gene expression as a result of inference from the transcription factor activity profile.
In a specific example, PC12 cells were grown in high glucose DMEM containing 10% horse serum and 5% fetal calf serum. For differentiation, cells were transferred to serum-free medium containing N-2 Supplement (Life Technologies) and 200 ng/ml Nerve Growth Factor-beta (Sigma). Cells were harvested after 5 hr and nuclear extracts were prepared as described above. A positive response of the PC12 cells to NGF was monitored by EMSA of AP-1 activity.
In this example, nuclear extracts were incubated with a random 16-mer library and the DNA present in specific protein/DNA complexes was isolated and sequenced. Known transcription factor binding sites present in the DNA sequences were counted as described in Example 1 and the data generated are presented in FIG. 2 in the same mainer as in Example 2. Thus, the bars indicate the percentage of DNA fragments containing selected cis sites that were isolated in binding reactions containing nuclear extracts from either untreated (white bars) or NGF-treated (black bars) PC12 cells. It can be seen that NGF-treatment leads to an increase in binding activity for AP 1, ATF, TCF11 (among others), while for example E2F and RFX1 activities are reduced after NGF treatment.

NGF: Nerve Growth Factor-beta (Sigma)
change in E2F activity after NGF treatment: reduced
change in RFX1 activity after NGF treatment: reduced
change in binding activity for AP 1 after NGF treatment: increase
change in binding activity for ATF after NGF treatment: increase
change in binding activity for TCF11 after NGF treatment: increase
